Data taken from US12312355B2, “1H-[1, 2, 3]triazolo[4, 5-h] quinazoline compounds acting as protein kinase inhibitors” (CHENGDU CYNOGEN BIO-PHARMACEUTICAL TECHNOLOGY CO., LTD., priority 2019, dated 2025).
Counter-ions that a name gives are not always drawn.

What was measured:
Assay type in all cases: biochemical
Conditions in all cases: class symbols
CDK2/cyclin A2 = CDK2/cyclin A2 (Homo sapiens (Human), UniProt P24941); assay: Kinase activity assay, Caliper Mobility Shift Assay, CDK2/cyclin A2
Experimental: (§1) The inhibitory effect of the compound on the kinase CDK4/cyclin D3 was tested by the Caliper Mobility Shift Assay method. The final test concentration of the compound was 10 concentrations, which started from […] and were obtained by three-fold dilution. 5 μL of 5-fold final concentration compound and 10 μL of CDK4/Cyclin D3 kinase solution with final concentration of 10 nM were added to the 384-well reaction plate respectively, and pre incubated at room temperature for 10 minutes (the negative control well contained 10 μL kinase buffer and 5 μL 5% DMSO; the positive control well contained 10 μL kinase solution and 5 μL 5% DMSO). The mixture of 10 μL ATP with a final concentration of 250 μM and the corresponding substrate peptide was added to initiate the reaction, and the mixture was reacted at room temperature for 150 minutes. 30 μL of stop test solution containing EDTA was added to stop the kinase reaction. Conversion rate was read by Caliper EZ Reader. Conversion inhibition rate %=(average conversion rate of positive control %−sample conversion rate %)/(average conversion rate of positive control %−average conversion rate of negative control %). Wherein: the negative control well represents conversion rate reading of wells without enzyme activity; the positive control well represents conversion rate reading of wells without compound inhibition. The log value of concentration was taken as the X-axis and the percentage inhibition rate was the Y-axis. The dose-effect curve was fitted by log(inhibitor) vs. response—Variable slope of the analysis software GraphPad Prism 5, and the IC50 value of each compound on the enzyme activity was obtained. Calculation formula: Y=Bottom+(Top−Bottom)/(1+10^((Log IC50−X)*HillSlope)).
The IC50 values of the compounds of the present disclosure for CDK6/cyclin D3 and CDK2/cyclin A2 were tested in a similar manner.

CDK4/cyclin D3 = CDK4/cyclin D3 (Homo sapiens (Human), UniProt P11802); assay: Kinase activity assay, Caliper Mobility Shift Assay, CDK4/cyclin D3
Experimental: as §1, with “The dose-effect curve was fitted by log(inhibitor) vs. response—Variable slope of the analysis software GraphPad Prism 5, and the IC50 value of each compound on the enzyme activity was obtained.” left out

CDK6/cyclin D3 = CDK6/cyclin D3 (Homo sapiens (Human), UniProt Q00534); assay: Kinase activity assay, Caliper Mobility Shift Assay, CDK6/cyclin D3
Sequence of CDK6/cyclin D3 (Q00534 whole entry, species assumed): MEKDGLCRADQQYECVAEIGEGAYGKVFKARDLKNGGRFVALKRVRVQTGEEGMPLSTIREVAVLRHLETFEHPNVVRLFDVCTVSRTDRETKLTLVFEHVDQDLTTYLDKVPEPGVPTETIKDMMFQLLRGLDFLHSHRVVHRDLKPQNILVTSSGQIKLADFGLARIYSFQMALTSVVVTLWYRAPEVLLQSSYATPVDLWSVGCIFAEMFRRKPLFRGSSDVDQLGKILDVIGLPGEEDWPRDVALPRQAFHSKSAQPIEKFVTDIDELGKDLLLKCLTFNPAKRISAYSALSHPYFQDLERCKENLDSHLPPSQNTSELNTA
Sequence of CDK6/cyclin D3 (P30281 whole entry partner, species assumed): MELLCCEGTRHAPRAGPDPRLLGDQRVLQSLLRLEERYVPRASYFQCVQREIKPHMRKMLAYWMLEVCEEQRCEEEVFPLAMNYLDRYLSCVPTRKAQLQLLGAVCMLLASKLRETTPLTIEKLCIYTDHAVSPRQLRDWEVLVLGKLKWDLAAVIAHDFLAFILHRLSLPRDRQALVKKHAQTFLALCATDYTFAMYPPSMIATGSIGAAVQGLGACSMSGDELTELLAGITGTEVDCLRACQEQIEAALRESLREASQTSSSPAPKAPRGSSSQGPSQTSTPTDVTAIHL

Sequence of CDK4/cyclin D3 (P11802 whole entry, species assumed): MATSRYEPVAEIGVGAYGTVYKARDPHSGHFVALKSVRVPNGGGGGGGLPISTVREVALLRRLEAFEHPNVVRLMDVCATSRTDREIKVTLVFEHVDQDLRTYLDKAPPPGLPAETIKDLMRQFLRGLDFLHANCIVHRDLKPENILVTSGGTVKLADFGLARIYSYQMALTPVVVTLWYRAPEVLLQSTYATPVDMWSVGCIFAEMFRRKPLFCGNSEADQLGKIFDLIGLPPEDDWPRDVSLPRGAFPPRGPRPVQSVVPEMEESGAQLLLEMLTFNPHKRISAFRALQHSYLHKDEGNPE
Sequence of CDK4/cyclin D3 (P30281 whole entry partner, species assumed): as the sequence (P30281 whole entry partner, species assumed) above

SMILES | IC50 (CDK2/cyclin A2) [nM] | IC50 (CDK4/cyclin D3) [nM] | IC50 (CDK6/cyclin D3) [nM]
CC(C)n1nnc2ccc3cnc(Nc4ccc(N5CCNCC5)cc4F)nc3c21 [Compound I-28, N-(2-Fluoro-4-(piperazin-1-yl)phenyl)-1-isopropyl-1H-[1,2,3]triazolo[4,5-h]quin-azolin-8-amine hydrochloride] | < 10 | < 10 | < 10
COc1cc(N2CCNCC2)ccc1Nc1ncc2ccc3nnn(C(C)C)c3c2n1 [Compound I-30, 1-Isopropyl-N-(2-methoxy-4-(piperazin-1-yl)phenyl)-1H-[1,2,3]triazolo[4,5-h]quin-azolin-8-amine hydrochloride] | < 10 | < 10 | < 10
COc1cc(N2CCN(C)CC2)ccc1Nc1ncc2ccc3nnn(C(C)C)c3c2n1 [Compound I-31, 1-Isopropyl-N-(2-methoxy-4-(4-methyl-piperazin-1-yl)phenyl)-1H-[1,2,3]triazo-lo[4,5-h]quinazolin-8-amine] | 50 to 100 | 50 to 100 | 50 to 100
CC(C)n1nnc2ccc3cnc(Nc4ccc(N5CCNCC5)c(F)c4)nc3c21 [Compound I-32, N-(3-Fluoro-4-(piperazin-1-yl)phenyl)-1-isopropyl-1H-[1,2,3]triazolo[4,5-h]quin-azolin-8-amine hydrochloride] | < 10 | < 10 | < 10
CC(C)n1nnc2ccc3cnc(Nc4ccc(N5CCN(C)CC5)c(F)c4)nc3c21 [Compound I-33, N-(3-Fluoro-4-(4-methylpiperazin-1-yl)phenyl)-1-isopropyl-1H-[1,2,3]triazolo[4,5-h]quinazolin-8-amine] | < 10 | < 10 | < 10
CCN1CCN(c2ccc(Nc3ncc4ccc5nnn(C(C)C)c5c4n3)cc2F)CC1 [Compound I-34, N-(4-(4-Ethylpiperazin-1-yl)-3-fluorophe-nyl)-1-isopropyl-1H-[1,2,3]triazolo[4,5-h]quinazolin-8-amine hydrochloride] | < 10 | < 10 | < 10

Second part, the compound after the results:

IC50 (CDK2/cyclin A2) [nM] | IC50 (CDK4/cyclin D3) [nM] | IC50 (CDK6/cyclin D3) [nM] | SMILES
< 10 | < 10 | < 10 | CC(C)n1nnc2ccc3cnc(Nc4ccc(N5CCNCC5)cc4)nc3c21 [Compound I-24, 1-isopropyl-N-(4-(piperazin-1-yl)phenyl)-1H-[1,2,3]triazolo[4,5-h]quinazolin-8-amine hydrochloride]
< 10 | < 10 | < 10 | CCN1CCN(c2ccc(Nc3ncc4ccc5nnn(C(C)C)c5c4n3)cc2)CC1 [Compound I-25, N-(4-(4-Ethylpiperazin-1-yl)phenyl)-1-iso-propyl-1H-[1,2,3]triazolo[4,5-h]quin-azolin-8-amine]
< 10 | < 10 | < 10 | CC(C)n1nnc2ccc3cnc(Nc4ccc(N5CCOCC5)cc4)nc3c21 [Compound I-26, 1-Isopropyl-N-(4-morpholinophenyl)-1H-[1,2,3]triazolo[4,5-h]quinazolin-8-amine]
50 to 100 | 50 to 100 | 50 to 100 | CC(C)n1nnc2ccc3cnc(Nc4ccc(N5CCC(CCCO)CC5)cc4)nc3c21 [Compound I-27, 3-(1-(4-((1-isopropyl-1H-[1,2,3]triazolo [4,5-h]quinazolin-8-yl)amino)phenyl)pi-peridin-4-yl)propan-1-ol]
50 to 100 | 50 to 100 | 50 to 100 | CC(C)n1nnc2ccc3cnc(Nc4ccc(N5CCOCC5)cc4F)nc3c21 [Compound I-29, N-(2-Fluoro-4-morpholinophenyl)-1-iso-propyl-1H-[1,2,3]triazolo[4,5-h]quinazo-lin-8-amine]
10 to 50 | 10 to 50 | 10 to 50 | CC(C)n1nnc2ccc3cnc(Nc4ccc(N5CCOCC5)c(F)c4)nc3c21 [Compound I-35, N-(3-Fluoro-4-morpholinophenyl)-1-iso-propyl-1H-[1,2,3]triazolo[4,5-h]quinazo-lin-8-amine hydrochloride]
